System: second amniotic fluid-derived cell line
Assay: Two sequential high dose trichostatin A treatments (24 h each), gene expression by RT-PCR (Example 8)
Format: cell-based, human
Conditions: for Gata1 gene expression / HNF-3 beta gene expression / Insulin gene expression / Pdx-1 gene expression / sox17 gene expression: 1.25 μM 0-24 h + 96-120 h
Experimental: Several cell lines obtained from different amniotic fluid specimens (see Example 14) and pancreas donors (see Example 13) were tested with similar results. Two lines at similar passage number but derived from different amniotic fluid specimens are shown in Table VIII-A and Table VIII-B for this example. One of these cell lines was also used in examples 2 and 4 above. In addition, this example also contains comparison data in Table VIII-C and Table VIII-D for a single pancreatic-derived stromal line grown to early and late passage number.
Amniotic fluid derived cells or pancreatic-derived stromal cells were seeded into 24-well tissue culture plates at a density of 5000/cm^2 and cultured in AMNIOMAX (Invitrogen) or DMEM with 10% FBS respectively under standard cell culture conditions until confluent. After the cells reached confluency, amniotic fluid derived cells were treated at time 0 hours with a dose of 1.25 μM trichostatin A, and pancreatic-derived stromal cells were treated with a dose of 5.0 μM trichostatin A solubilized in DMSO and medium. At time 24 hours, cell cultures underwent a complete medium change to remove all traces of trichostatin A. At time 96 hours, cell cultures were re-fed with fresh medium and received a second dose of trichostatin A at the same concentration as used previously. At time 120 hours, cell cultures again underwent a complete medium change and were cultured for an additional 24 hours or […] total incubation time.
Samples were taken daily for RT-PCR at the times indicated in Table VIII-A to D. The culture media was removed, and samples were rinsed in PBS then collected in RLT with β-mercaptoethanol (Qiagen). RNA was purified using the RNeasy Mini Kit (Qiagen) and RNA quantity and quality were determined using a spectrophotometer. cDNA was made using the iScript cDNA synthesis kit (BioRad).
Samples of 20 ng cDNA were used in each reaction to determine the expression levels of the following genes in amniotic fluid-derived cells: Gata1, HNF-3 beta, Pdx-1, insulin, and Sox17. Similarly, samples of 20 ng cDNA were used in each reaction to determine the expression level of the following genes in pancreatic-derived cells: glucagon, HNF-3 beta, insulin and Pdx-1. Real-Time PCR was performed on the Applied Biosystems 7500, and data was analyzed using the accompanying software according to the methods described in Example 15.
Real-time PCR amplifcation and quantitative analysis. Unless otherwise stated, all reagents were purchased from Applied Biosystems. Real-time PCR reactions were performed using the ABI PRISM™ 7500 Sequence Detection System. TAQMAN™ FAST UNIVERSAL PCR MASTER MIX™ (ABI, CA) was used with 20 ng of reverse transcribed RNA in a total reaction volume of 20 μl. Each cDNA sample was run in duplicate to allow correction of pipetting errors. Primers and FAM-labeled TAQMAN™ probes were used at concentrations of 200 nM. The level of expression for each target gene was normalized using the pre-developed Applied Biosystem's human glyceraldehyde-3-phosphate dehydrogenase (GAPDH) endogenous control kit. Primers and probes were designed using either ABI PRISM PRIMER EXPRESS™ software or a pre-developed ABI gene analysis kit. For each gene, either one of the primers or the probe were designed to be exon-boundary spanning. This eliminated the possibility of the primers/probe binding to any genomic DNA present. The primer and probe sets are listed as follows: Pdx-1 (Hs00426216), Insulin (Hs00355773), glucagon (Hs00174967), and FoxA2 (HNF 3-beta) (Hs00232764). The remaining primers were designed using the PRIMERS program (ABI, CA). After an initial 95° C. incubation for 20 sec, samples were cycled 40 times in two stages: a denaturation step at 95° C. for 3 sec, followed by an annealing/extension step at 60° C. for 30 sec. […]

[1] = 1.25 μM, following the second treatment

For `CC(/C=C/C(=O)NO)=C\[C@@H](C)C(=O)c1ccc(N(C)C)cc1` [trichostatin A], the Gata1 gene expression (24 hrs) was “+ (detectable between 35 and 40 cycles by RT-PCR)”, the “HNF-3 beta gene expression” value (24 hrs) was “+++ (detectable at less than 35 cycles by RT-PCR with SE less than 0.9)” and the Insulin gene expression (24 hrs) was “nd (not detectable at >40 cycles by RT-PCR)”. The Pdx-1 gene expression (24 hrs) was “+++ (detectable at less than 35 cycles by RT-PCR with SE less than 0.9)”, the sox17 gene expression (24 hrs) was “+++ (detectable at less than 35 cycles by RT-PCR with SE less than 0.9)” and the Gata1 gene expression (48 hrs) was “nd (not detectable at >40 cycles by RT-PCR)”. The “HNF-3 beta gene expression” value (48 hrs) was “+++ (detectable at less than 35 cycles by RT-PCR with SE less than 0.9)”, the Insulin gene expression (48 hrs) was “nd (not detectable at >40 cycles by RT-PCR)” and the Pdx-1 gene expression (48 hrs) was “nd (not detectable at >40 cycles by RT-PCR)”. For the same molecule, the sox17 gene expression (48 hrs) was “+++ (detectable at less than 35 cycles by RT-PCR with SE less than 0.9)”, the Gata1 gene expression (72 hrs) was “nd (not detectable at >40 cycles by RT-PCR)” and the “HNF-3 beta gene expression” value (72 hrs) was “+++ (detectable at less than 35 cycles by RT-PCR with SE less than 0.9)”. For the same molecule, the Insulin gene expression (72 hrs) was “+ (detectable between 35 and 40 cycles by RT-PCR)”, the Pdx-1 gene expression (72 hrs) was “nd (not detectable at >40 cycles by RT-PCR)” and the sox17 gene expression (72 hrs) was “+++ (detectable at less than 35 cycles by RT-PCR with SE less than 0.9)”. For the same molecule, the Gata1 gene expression (96 hrs) was “nd (not detectable at >40 cycles by RT-PCR)”, the “HNF-3 beta gene expression” value (96 hrs) was “+ (detectable between 35 and 40 cycles by RT-PCR)” and the Insulin gene expression (96 hrs) was “+ (detectable between 35 and 40 cycles by RT-PCR)”. For the same molecule, the Pdx-1 gene expression (96 hrs) was “nd (not detectable at >40 cycles by RT-PCR)”, the sox17 gene expression (96 hrs) was “+++ (detectable at less than 35 cycles by RT-PCR with SE less than 0.9)” and the Gata1 gene expression (120 hrs) was “+ (detectable between 35 and 40 cycles by RT-PCR)”. The “HNF-3 beta gene expression” value (120 hrs) was “+++ (detectable at less than 35 cycles by RT-PCR with SE less than 0.9)”, the Insulin gene expression (120 hrs) was “nd (not detectable at >40 cycles by RT-PCR)” and the Pdx-1 gene expression (120 hrs) was “+++ (detectable at less than 35 cycles by RT-PCR with SE less than 0.9)”. The sox17 gene expression (120 hrs) was “+++ (detectable at less than 35 cycles by RT-PCR with SE less than 0.9)”, the Gata1 gene expression (144 hrs) was “nd (not detectable at >40 cycles by RT-PCR)” and the “HNF-3 beta gene expression” value (144 hrs) was “+++ (detectable at less than 35 cycles by RT-PCR with SE less than 0.9)”. The Insulin gene expression (144 hrs) was “nd (not detectable at >40 cycles by RT-PCR)”, the Pdx-1 gene expression (144 hrs) was “nd (not detectable at >40 cycles by RT-PCR)” and the sox17 gene expression (144 hrs) was “+++ (detectable at less than 35 cycles by RT-PCR with SE less than 0.9)”. The “Pdx-1 RT-PCR detection cycle” value (1.25 μM, after the initial treatment) was 33 cycles, the “Insulin RT-PCR detection cycle” value (1.25 μM, after trichostatin A was washed away) was 36 cycles and the “HNF-3 beta RT-PCR detection cycle” value [1] was 32 cycles. For the same molecule, the “Pdx-1 RT-PCR detection cycle” value [1] was 32 cycles, the “HNF-3 beta RT-PCR detection cycle” value (1.25 μM, initial treatment) was 35 cycles and the “HNF-3 beta RT-PCR detection cycle” value (1.25 μM, prior to the second addition) was 38 cycles.

Reference: US20080063628A1, “METHODS TO PROMOTE CELL DIFFERENTIATION” (priority 2006, published 2008)
